Source: US20240252508A1, “Novel glucose uptake inhibitors for use in the treatment of cancer” (NOVELYEAST BV, priority 2021, published 2024)

Experiments:
tps1Δ cells = assay: Growth rescue of tps1Δ strain on glucose (growth curves, 2% galactose medium); type: cell-based, S. cerevisiae; conditions: 100 μM compound, 2.5 mM glucose
How it was run: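 Growth at 30 °C was tracked by OD595 readings every 30 min, with at least triplicate technical wells. Cells came from 2% galactose synthetic precultures, were washed and set to OD 0.1, and received compound 10 min ahead of the glucose addition.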

[1] = tested on: A549 lung adenocarcinoma cells; assay: A549 cell proliferation / growth inhibition; type: cell-based, human; conditions: for Selected from primary screen for growth inhibition of A549 cells at 50 μM: 50 μM compound, 1 mM glucose; for Selected for having an IC50 ratio (10 mM glucose: 1 mM glucose) of A549 growth higher than WBC-A: IC50 on 10 mM vs 1 mM glucose, compared with WBC-A
How it was run: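 A549 growth screened in RPMI with 1 mM glucose, compounds at 50 μM; cell number from counts of Hoechst-stained nuclei after 3 days. Growth curves also followed by IncuCyte phase-contrast confluency over 3–5 days (1000–1500 cells/well), DMSO ≤0.1%, ≥4 technical repeats.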

Compound: Cc1nc(SC(C)C(=O)Nc2ccc(S(N)(=O)=O)cc2)c2c(-c3cccs3)csc2n1 (centres unmarked) [14B]
- Rescue of the tps1Δ strain on 2.5 mM glucose at 100 μM (tps1Δ cells): No
- Selected from primary screen for growth inhibition of A549 cells at 50 μM [1]: Yes
- Selected for having an IC50 ratio (10 mM glucose: 1 mM glucose) of A549 growth higher than WBC-A [1]: Lower IC50 ratio

Compound: Cc1nc(SCC(=O)N2CCOCC2)c2c3c(sc2n1)CCCC3 [52C]
- Rescue of the tps1Δ strain on 2.5 mM glucose at 100 μM (tps1Δ cells): No
- Selected from primary screen for growth inhibition of A549 cells at 50 μM [1]: No

Compound: CCOC(=O)CSc1nc(CN2CCOCC2)nc2scc(-c3cccs3)c12 [35B]
- Rescue of the tps1Δ strain on 2.5 mM glucose at 100 μM (tps1Δ cells): No
- Selected from primary screen for growth inhibition of A549 cells at 50 μM [1]: No

Compound: c1csc(-c2csc3nc(CN4CCOCC4)nc(Sc4ccncc4)c23)c1 [40C]
- Rescue of the tps1Δ strain on 2.5 mM glucose at 100 μM (tps1Δ cells): No
- Selected from primary screen for growth inhibition of A549 cells at 50 μM [1]: Yes
- Selected for having an IC50 ratio (10 mM glucose: 1 mM glucose) of A549 growth higher than WBC-A [1]: Lower IC50 ratio

Compound: Cc1nc(SCCO)c2c3c(sc2n1)CCC3 [24C]
- Rescue of the tps1Δ strain on 2.5 mM glucose at 100 μM (tps1Δ cells): No
- Selected from primary screen for growth inhibition of A549 cells at 50 μM [1]: No

Compound: Cc1nc(N(C)Cc2nnc3n2CCCCC3)c2c(-c3ccccc3)csc2n1 [33A]
- Rescue of the tps1Δ strain on 2.5 mM glucose at 100 μM (tps1Δ cells): No
- Selected from primary screen for growth inhibition of A549 cells at 50 μM [1]: No

Compound: Cc1nc(SCC(=O)Nc2ccccc2-c2ccccc2)c2c(-c3cccs3)csc2n1 [13B]
- Rescue of the tps1Δ strain on 2.5 mM glucose at 100 μM (tps1Δ cells): No
- Selected from primary screen for growth inhibition of A549 cells at 50 μM [1]: Yes
- Selected for having an IC50 ratio (10 mM glucose: 1 mM glucose) of A549 growth higher than WBC-A [1]: Higher IC50 ratio, but false-positive

Compound: CCCn1c(Sc2nc(C)nc3scc(-c4cccs4)c23)nnc1-c1ccncc1 [34C]
- Rescue of the tps1Δ strain on 2.5 mM glucose at 100 μM (tps1Δ cells): No
- Selected from primary screen for growth inhibition of A549 cells at 50 μM [1]: Yes
- Selected for having an IC50 ratio (10 mM glucose: 1 mM glucose) of A549 growth higher than WBC-A [1]: Lower IC50 ratio

Compound: Cc1nc(Sc2nnc(NC3CC3)s2)c2c(-c3cccs3)csc2n1 [66C]
- Rescue of the tps1Δ strain on 2.5 mM glucose at 100 μM (tps1Δ cells): No
- Selected from primary screen for growth inhibition of A549 cells at 50 μM [1]: No

Compound: Cc1nc(NC2CCC(O)CC2)c2c(-c3cccs3)csc2n1 (centres unmarked) [42B]
- Rescue of the tps1Δ strain on 2.5 mM glucose at 100 μM (tps1Δ cells): No
- Selected from primary screen for growth inhibition of A549 cells at 50 μM [1]: No

Compound: Cc1nc(SCC(=O)NC(C)(C#N)C2CC2)c2c(-c3cccs3)csc2n1 (centres unmarked) [18B]
- Rescue of the tps1Δ strain on 2.5 mM glucose at 100 μM (tps1Δ cells): No
- Selected from primary screen for growth inhibition of A549 cells at 50 μM [1]: Yes
- Selected for having an IC50 ratio (10 mM glucose: 1 mM glucose) of A549 growth higher than WBC-A [1]: Higher IC50 ratio, but false-positive

Compound: CCn1c(Sc2nc(C)nc3scc(-c4cccs4)c23)nnc1-c1ccco1 [38C]
- Rescue of the tps1Δ strain on 2.5 mM glucose at 100 μM (tps1Δ cells): No
- Selected from primary screen for growth inhibition of A549 cells at 50 μM [1]: No

Compound: Cc1nc(N2CCC3(CC2)OCCO3)c2c(-c3cccs3)csc2n1 [47B]
- Rescue of the tps1Δ strain on 2.5 mM glucose at 100 μM (tps1Δ cells): No
- Selected from primary screen for growth inhibition of A549 cells at 50 μM [1]: Yes
- Selected for having an IC50 ratio (10 mM glucose: 1 mM glucose) of A549 growth higher than WBC-A [1]: Lower IC50 ratio

Compound: Cc1cc(C)n2nc(Sc3nc(C)nc4scc(-c5cccs5)c34)nc2n1 [3A]
- Rescue of the tps1Δ strain on 2.5 mM glucose at 100 μM (tps1Δ cells): No
- Selected from primary screen for growth inhibition of A549 cells at 50 μM [1]: No

Compound: Cc1nc(Sc2nc(CSc3ccccc3)nc3sc(C)c(C)c23)n[nH]1 [10A]
- Rescue of the tps1Δ strain on 2.5 mM glucose at 100 μM (tps1Δ cells): No
- Selected from primary screen for growth inhibition of A549 cells at 50 μM [1]: No

Compound: OCCSc1ncnc2sc3c(c12)CCC3 [17C]
- Rescue of the tps1Δ strain on 2.5 mM glucose at 100 μM (tps1Δ cells): No
- Selected from primary screen for growth inhibition of A549 cells at 50 μM [1]: No

Compound: Cc1nc(SCC(=O)Nc2cc(C)on2)c2c(-c3cccs3)csc2n1 [10C]
- Rescue of the tps1Δ strain on 2.5 mM glucose at 100 μM (tps1Δ cells): Yes
- Selected from primary screen for growth inhibition of A549 cells at 50 μM [1]: Yes
- Selected for having an IC50 ratio (10 mM glucose: 1 mM glucose) of A549 growth higher than WBC-A [1]: Lower IC50 ratio

Compound: Cc1sc2ncnc(Sc3nnc(Cc4cccs4)n3C)c2c1C [12A]
- Rescue of the tps1Δ strain on 2.5 mM glucose at 100 μM (tps1Δ cells): No
- Selected from primary screen for growth inhibition of A549 cells at 50 μM [1]: No

Compound: Cc1ccc(-c2csc3ncnc(Sc4ncccn4)c23)cc1 [50A]
- Rescue of the tps1Δ strain on 2.5 mM glucose at 100 μM (tps1Δ cells): No
- Selected from primary screen for growth inhibition of A549 cells at 50 μM [1]: No

Compound: Cc1nc(SCCO)c2c(C)c(C)sc2n1 [57C]
- Rescue of the tps1Δ strain on 2.5 mM glucose at 100 μM (tps1Δ cells): No
- Selected from primary screen for growth inhibition of A549 cells at 50 μM [1]: No

Compound: CCn1c(Sc2nc(C)nc3scc(-c4cccs4)c23)nnc1-c1ccncc1 [43C]
- Rescue of the tps1Δ strain on 2.5 mM glucose at 100 μM (tps1Δ cells): Yes
- Selected from primary screen for growth inhibition of A549 cells at 50 μM [1]: Yes

Compound: OCCCSc1ncnc2scc(-c3ccc(F)cc3)c12 [53C]
- Rescue of the tps1Δ strain on 2.5 mM glucose at 100 μM (tps1Δ cells): No
- Selected from primary screen for growth inhibition of A549 cells at 50 μM [1]: No

Compound: CCn1c(CCC(N)=O)nnc1Sc1nc(C)nc2scc(-c3cccs3)c12 [16C]
- Rescue of the tps1Δ strain on 2.5 mM glucose at 100 μM (tps1Δ cells): Yes
- Selected from primary screen for growth inhibition of A549 cells at 50 μM [1]: Yes
- Selected for having an IC50 ratio (10 mM glucose: 1 mM glucose) of A549 growth higher than WBC-A [1]: Lower IC50 ratio

Compound: Cc1nc(Sc2nnc3ccccn23)c2c(-c3cccs3)csc2n1 [30A]
- Rescue of the tps1Δ strain on 2.5 mM glucose at 100 μM (tps1Δ cells): No
- Selected from primary screen for growth inhibition of A549 cells at 50 μM [1]: No

Compound: Cc1nc(SCC(=O)N2CC(C)OC(C)C2)c2c(-c3cccs3)csc2n1 (centres unmarked) [5B]
- Rescue of the tps1Δ strain on 2.5 mM glucose at 100 μM (tps1Δ cells): Yes
- Selected from primary screen for growth inhibition of A549 cells at 50 μM [1]: No

Compound: Cc1nc(SCC(=O)N(CC(C)C)CC(C)C)c2c(-c3cccs3)csc2n1 [44B]
- Rescue of the tps1Δ strain on 2.5 mM glucose at 100 μM (tps1Δ cells): No
- Selected from primary screen for growth inhibition of A549 cells at 50 μM [1]: Yes
- Selected for having an IC50 ratio (10 mM glucose: 1 mM glucose) of A549 growth higher than WBC-A [1]: Lower IC50 ratio

Compound: CC(=O)CSc1nc(C)nc2scc(-c3cccs3)c12 [26B]
- Rescue of the tps1Δ strain on 2.5 mM glucose at 100 μM (tps1Δ cells): No
- Selected from primary screen for growth inhibition of A549 cells at 50 μM [1]: No

Compound: Cc1nc(Sc2nnc3n2CCC(CN=[N+]=[N-])CC3)c2c(-c3cccs3)csc2n1 (centres unmarked) [87C]
- Rescue of the tps1Δ strain on 2.5 mM glucose at 100 μM (tps1Δ cells): Yes
- Selected from primary screen for growth inhibition of A549 cells at 50 μM [1]: Yes
- Selected for having an IC50 ratio (10 mM glucose: 1 mM glucose) of A549 growth higher than WBC-A [1]: Lower IC50 ratio

Compound: Cc1nc(SCC(=O)N2CC(C)OC(C)C2)c2c(C)c(C)sc2n1 (centres unmarked) [7C]
- Rescue of the tps1Δ strain on 2.5 mM glucose at 100 μM (tps1Δ cells): No
- Selected from primary screen for growth inhibition of A549 cells at 50 μM [1]: Yes
- Selected for having an IC50 ratio (10 mM glucose: 1 mM glucose) of A549 growth higher than WBC-A [1]: Higher IC50 ratio, but false-positive

Compound: c1ccn2c(Sc3ncnc4sccc34)nnc2c1 [46A]
- Rescue of the tps1Δ strain on 2.5 mM glucose at 100 μM (tps1Δ cells): No
- Selected from primary screen for growth inhibition of A549 cells at 50 μM [1]: No

Compound: CC(=O)Nc1ccc(C(=O)CSc2nc(C)nc3scc(-c4cccs4)c23)cc1 [17B]
- Rescue of the tps1Δ strain on 2.5 mM glucose at 100 μM (tps1Δ cells): No
- Selected from primary screen for growth inhibition of A549 cells at 50 μM [1]: Yes
- Selected for having an IC50 ratio (10 mM glucose: 1 mM glucose) of A549 growth higher than WBC-A [1]: Higher IC50 ratio, but false-positive
